Columns and labels:
[1] = system: isolated rabbit skeletal muscle myosin (skeletal); assay: actomyosin steady state ATPase measurement, skeletal muscle myosin; assay type: biochemical; settings: for % inhibition at 5 μM (or 10 μM if racemate) Skeletal: 5 μM (10 μM if racemate); for % inhibition at 5 μM (or 10 μM if racemate) Skeletal / % inhibition at 50 μM (or 100 μM if racemate) Skeletal: ATPase activity; for % inhibition at 50 μM (or 100 μM if racemate) Skeletal: 50 μM (100 μM if racemate); for IC50: concentration required for semi-maximal inhibition of ATPase; for % inhibition. complete Skeletal: maximum value of inhibition of ATPase activity; for Inhibition (%) skeletal: maximum inhibition, compounds in IC50 range 1-2 μM
Excerpt: (§1) […]; (ii) the concentration required for semi-maximal inhibition.

[2] = biological target: recombinant Dictyostelium miozin (Dictyostelium) (Dictyostelium discoideum, UniProt P08799); assay: actomyosin steady state ATPase measurement, Dictyostelium myosin; assay type: biochemical; settings: for IC50: concentration required for semi-maximal inhibition of ATPase, read-out: IC50 (μM) Dicty; for inhibition at 5 µM: read-out: % inhibition at 5 μM (or 10 μM if racemate) Dicty; for inhibition at 50 µM: read-out: % inhibition at 50 μM (or 100 μM if racemate) Dicty; for % inhibition. complete Dicty: maximum value of inhibition of ATPase activity
recombinant Dictyostelium miozin (Dictyostelium), sequence (P08799 whole entry): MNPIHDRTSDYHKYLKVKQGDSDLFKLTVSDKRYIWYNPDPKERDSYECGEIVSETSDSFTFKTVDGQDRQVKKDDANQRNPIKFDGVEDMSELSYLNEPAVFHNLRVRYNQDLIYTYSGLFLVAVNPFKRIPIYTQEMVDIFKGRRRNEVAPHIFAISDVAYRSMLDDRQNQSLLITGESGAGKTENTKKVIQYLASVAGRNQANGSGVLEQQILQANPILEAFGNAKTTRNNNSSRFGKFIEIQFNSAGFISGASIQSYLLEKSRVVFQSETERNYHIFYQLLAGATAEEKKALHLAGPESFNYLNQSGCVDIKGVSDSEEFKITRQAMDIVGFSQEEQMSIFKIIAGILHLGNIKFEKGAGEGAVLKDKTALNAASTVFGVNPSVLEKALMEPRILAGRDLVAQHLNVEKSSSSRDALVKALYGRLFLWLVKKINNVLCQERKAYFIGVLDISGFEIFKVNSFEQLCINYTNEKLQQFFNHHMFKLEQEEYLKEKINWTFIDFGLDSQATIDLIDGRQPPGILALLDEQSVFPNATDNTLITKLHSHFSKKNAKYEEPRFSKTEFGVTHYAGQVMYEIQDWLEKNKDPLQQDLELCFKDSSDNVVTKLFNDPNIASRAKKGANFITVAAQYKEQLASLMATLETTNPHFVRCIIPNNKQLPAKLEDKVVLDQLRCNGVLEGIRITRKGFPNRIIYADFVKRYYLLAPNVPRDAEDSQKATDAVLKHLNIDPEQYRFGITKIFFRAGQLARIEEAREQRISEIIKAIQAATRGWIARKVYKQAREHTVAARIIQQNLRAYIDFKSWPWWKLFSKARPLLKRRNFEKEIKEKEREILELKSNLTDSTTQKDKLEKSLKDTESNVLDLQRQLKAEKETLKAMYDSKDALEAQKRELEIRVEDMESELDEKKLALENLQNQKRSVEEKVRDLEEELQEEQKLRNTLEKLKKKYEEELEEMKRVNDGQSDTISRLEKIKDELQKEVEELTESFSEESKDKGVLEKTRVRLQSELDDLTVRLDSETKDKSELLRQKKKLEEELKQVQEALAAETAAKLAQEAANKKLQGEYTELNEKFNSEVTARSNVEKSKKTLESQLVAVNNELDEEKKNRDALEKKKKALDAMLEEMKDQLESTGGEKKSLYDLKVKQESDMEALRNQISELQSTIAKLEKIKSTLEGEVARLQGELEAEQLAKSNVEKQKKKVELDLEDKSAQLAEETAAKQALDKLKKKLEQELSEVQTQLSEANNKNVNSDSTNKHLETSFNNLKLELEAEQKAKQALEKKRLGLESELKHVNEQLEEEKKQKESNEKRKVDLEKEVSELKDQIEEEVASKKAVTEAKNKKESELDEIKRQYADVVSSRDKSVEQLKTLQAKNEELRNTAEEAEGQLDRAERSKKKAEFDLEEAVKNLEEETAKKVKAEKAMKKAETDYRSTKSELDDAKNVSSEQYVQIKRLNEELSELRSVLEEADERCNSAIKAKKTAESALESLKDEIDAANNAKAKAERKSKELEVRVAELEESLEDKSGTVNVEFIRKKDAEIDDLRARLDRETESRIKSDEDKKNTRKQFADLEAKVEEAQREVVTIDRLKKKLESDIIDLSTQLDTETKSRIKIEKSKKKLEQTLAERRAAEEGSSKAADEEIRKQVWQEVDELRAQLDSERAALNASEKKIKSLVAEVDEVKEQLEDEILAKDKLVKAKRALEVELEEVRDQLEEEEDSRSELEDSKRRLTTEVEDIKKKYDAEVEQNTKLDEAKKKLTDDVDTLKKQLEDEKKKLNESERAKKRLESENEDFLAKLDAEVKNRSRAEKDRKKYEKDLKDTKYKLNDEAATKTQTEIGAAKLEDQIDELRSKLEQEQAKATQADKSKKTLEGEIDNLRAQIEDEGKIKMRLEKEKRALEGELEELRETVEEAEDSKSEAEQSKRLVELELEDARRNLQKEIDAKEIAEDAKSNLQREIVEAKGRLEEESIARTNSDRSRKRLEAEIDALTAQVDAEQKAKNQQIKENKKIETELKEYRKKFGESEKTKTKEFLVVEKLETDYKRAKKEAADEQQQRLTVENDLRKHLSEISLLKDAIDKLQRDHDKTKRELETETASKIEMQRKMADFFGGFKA
Excerpt: as §1

[3] = biological target: isolated smooth muscle myosin (UniProt P10587); assay type: biochemical, chamois; settings: concentration required for semi-maximal inhibition of ATPase
isolated smooth muscle myosin, sequence (P10587 whole entry): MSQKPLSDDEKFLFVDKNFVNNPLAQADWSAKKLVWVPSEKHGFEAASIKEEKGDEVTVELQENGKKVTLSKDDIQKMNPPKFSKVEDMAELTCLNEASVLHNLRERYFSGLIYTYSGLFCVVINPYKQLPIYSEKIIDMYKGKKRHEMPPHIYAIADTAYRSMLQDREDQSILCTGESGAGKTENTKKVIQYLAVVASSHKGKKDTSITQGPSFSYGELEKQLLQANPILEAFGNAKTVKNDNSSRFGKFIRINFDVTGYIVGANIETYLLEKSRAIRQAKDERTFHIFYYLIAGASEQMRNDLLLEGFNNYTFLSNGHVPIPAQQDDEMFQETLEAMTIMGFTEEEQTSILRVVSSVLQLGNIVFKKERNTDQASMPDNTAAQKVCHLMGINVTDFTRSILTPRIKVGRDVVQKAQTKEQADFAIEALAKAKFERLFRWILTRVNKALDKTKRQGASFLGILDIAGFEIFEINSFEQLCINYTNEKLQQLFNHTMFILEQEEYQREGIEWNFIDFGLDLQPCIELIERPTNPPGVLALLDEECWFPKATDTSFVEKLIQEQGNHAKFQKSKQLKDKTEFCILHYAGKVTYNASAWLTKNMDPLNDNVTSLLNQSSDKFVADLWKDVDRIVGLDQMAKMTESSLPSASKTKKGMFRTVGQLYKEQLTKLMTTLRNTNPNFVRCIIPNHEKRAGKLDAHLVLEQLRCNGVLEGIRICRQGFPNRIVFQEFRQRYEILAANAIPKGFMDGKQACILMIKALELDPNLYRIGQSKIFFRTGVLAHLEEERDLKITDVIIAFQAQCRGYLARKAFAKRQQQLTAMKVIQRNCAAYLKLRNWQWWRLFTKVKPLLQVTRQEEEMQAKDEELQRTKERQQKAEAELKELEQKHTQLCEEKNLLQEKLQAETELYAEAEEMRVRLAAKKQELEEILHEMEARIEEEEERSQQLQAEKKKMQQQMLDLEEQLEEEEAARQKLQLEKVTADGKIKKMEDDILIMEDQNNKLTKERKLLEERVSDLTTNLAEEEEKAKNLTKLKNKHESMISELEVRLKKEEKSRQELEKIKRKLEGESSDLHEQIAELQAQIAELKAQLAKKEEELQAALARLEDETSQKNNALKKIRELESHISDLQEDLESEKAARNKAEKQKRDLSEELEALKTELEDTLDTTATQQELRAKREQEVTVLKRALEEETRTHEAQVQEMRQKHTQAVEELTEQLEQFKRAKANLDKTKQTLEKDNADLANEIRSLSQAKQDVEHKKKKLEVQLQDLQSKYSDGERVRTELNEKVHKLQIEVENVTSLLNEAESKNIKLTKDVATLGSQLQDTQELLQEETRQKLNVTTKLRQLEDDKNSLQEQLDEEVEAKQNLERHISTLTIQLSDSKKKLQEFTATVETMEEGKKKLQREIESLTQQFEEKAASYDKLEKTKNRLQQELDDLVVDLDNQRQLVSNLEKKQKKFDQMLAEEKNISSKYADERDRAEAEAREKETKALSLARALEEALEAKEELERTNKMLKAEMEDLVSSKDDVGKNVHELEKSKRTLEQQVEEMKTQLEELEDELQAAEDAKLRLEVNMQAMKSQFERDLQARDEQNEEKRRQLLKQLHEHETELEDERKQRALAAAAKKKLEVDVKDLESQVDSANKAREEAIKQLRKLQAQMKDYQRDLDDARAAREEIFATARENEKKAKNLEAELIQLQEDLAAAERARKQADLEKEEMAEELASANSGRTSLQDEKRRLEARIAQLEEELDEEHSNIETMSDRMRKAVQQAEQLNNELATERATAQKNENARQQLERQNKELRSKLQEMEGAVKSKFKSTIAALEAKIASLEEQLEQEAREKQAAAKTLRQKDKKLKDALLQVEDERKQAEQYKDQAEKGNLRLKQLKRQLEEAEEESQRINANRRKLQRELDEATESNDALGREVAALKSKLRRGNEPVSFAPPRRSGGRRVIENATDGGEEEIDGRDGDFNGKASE
Excerpt: (ii) the concentration required for semi-maximal inhibition.

[4] = biological target: T1, isolated porcine cardiac ventricular myocardium (cardiac) (Sus scrofa, UniProt P79293); assay: actomyosin steady state ATPase measurement, cardiac myosin; assay type: biochemical; settings: for IC50: concentration required for semi-maximal inhibition of ATPase; for Inhibition (%) cardiac: maximum inhibition, compounds in IC50 range 3-6 μM; for % inhibition. complete cardiac: maximum value of inhibition of ATPase activity; for inhibition at 5 µM: read-out: % inhibition at 5 μM (or 10 μM if racemate) cardiac, 5 μM (10 μM if racemate); for inhibition at 5 µM / inhibition at 50 µM: ATPase activity; for inhibition at 50 µM: read-out: % inhibition at 50 μM (or 100 μM if racemate) cardiac, 50 μM (100 μM if racemate)
T1 construct: isolated porcine cardiac ventricular myocardium (cardiac); from tissue; host or cells: porcine cardiac ventricle
Excerpt: as §1

[5] = biological target: isolated smooth muscle myosin (UniProt P10587); assay type: biochemical, chamois; settings: for % inhibition at 5 μM (or 10 μM if racemate) Smooth: 5 μM (10 μM if racemate); for % inhibition at 5 μM (or 10 μM if racemate) Smooth / % inhibition at 50 μM (or 100 μM if racemate) Smooth: ATPase activity; for % inhibition at 50 μM (or 100 μM if racemate) Smooth: 50 μM (100 μM if racemate); for % inhibition. complete Smooth: maximum value of inhibition of ATPase activity; for Inhibition (%) smooth: maximum inhibition, compounds in IC50 range 1-5 μM

Compound: O=C1c2ccsc2N=C2NCC[C@@]12O [Compound 207, (9S)-9-Hydroxy-4-thia-2,12-diazatricyclo[7.3.0.0^3,7]dodeca-1,3(7),5-trien-8-one]
- % inhibition at 5 μM (or 10 μM if racemate) Skeletal [1]: 7%
- % inhibition at 50 μM (or 100 μM if racemate) Skeletal [1]: 14%
- IC50 [1]: 5.8 µM
- % inhibition. complete Skeletal [1]: 15%
- IC50 [2]: > 100 µM
- inhibition at 5 µM [2]: 0%
- inhibition at 50 µM [2]: 5%
- IC50 [3]: 1 µM
- IC50 [4]: 3.7 µM
- Inhibition (%) cardiac [4]: 8%
- % inhibition. complete cardiac [4]: 8%
- inhibition at 5 µM [4]: 4%
- inhibition at 50 µM [4]: 7%
- % inhibition at 5 μM (or 10 μM if racemate) Smooth [5]: 7%
- % inhibition at 50 μM (or 100 μM if racemate) Smooth [5]: 6%
- % inhibition. complete Smooth [5]: 7%

Compound: Cc1cc2c(s1)N=C1NCCC1(O)C2=O (stereo not drawn) [Compound 231, 9-Hydroxy-5-methyl-4-thia-2,12-diazatricyclo[7.3.0.0^3,7]dodeca-1,3(7),5-trien-8-one]
- % inhibition at 5 μM (or 10 μM if racemate) Skeletal [1]: 5%
- % inhibition at 50 μM (or 100 μM if racemate) Skeletal [1]: 7%
- IC50 [1]: 1.4 µM
- Inhibition (%) skeletal [1]: 7%
- % inhibition. complete Skeletal [1]: 7%
- IC50 [2]: > 100 µM
- inhibition at 5 µM [2]: 4%
- inhibition at 50 µM [2]: 0%
- IC50 [3]: 1 µM
- IC50 [4]: 1 µM
- inhibition at 5 µM [4]: 6%
- inhibition at 50 µM [4]: 5%
- % inhibition at 5 μM (or 10 μM if racemate) Smooth [5]: 7%
- % inhibition at 50 μM (or 100 μM if racemate) Smooth [5]: 2%
- Inhibition (%) smooth [5]: 5%
- % inhibition. complete Smooth [5]: 5%

Compound: Cc1ccc(N2CCC3(O)C(=O)c4cc(C)sc4N=C23)cc1 (stereo not drawn) [Compound 235, 12-[4-(Methyl)phenyl]-9-hydroxy-5-methyl-4-thia-2,12-diazatricyclo[7.3.0.0^3,7]dodeca-1,3(7),5-trien-8-one]
- % inhibition at 5 μM (or 10 μM if racemate) Skeletal [1]: 98%
- % inhibition at 50 μM (or 100 μM if racemate) Skeletal [1]: 100%
- IC50 [1]: 0.08 µM
- % inhibition. complete Skeletal [1]: 100%
- IC50 [2]: 0.17 µM
- % inhibition. complete Dicty [2]: 46%
- inhibition at 5 µM [2]: 44%
- inhibition at 50 µM [2]: 45%
- IC50 [3]: 0.01 µM
- IC50 [4]: 0.01 µM
- % inhibition. complete cardiac [4]: 71%
- inhibition at 5 µM [4]: 72%
- inhibition at 50 µM [4]: 70%
- % inhibition at 5 μM (or 10 μM if racemate) Smooth [5]: 82%
- % inhibition at 50 μM (or 100 μM if racemate) Smooth [5]: 79%
- % inhibition. complete Smooth [5]: 81%

Compound: CC(=O)c1ccc(N2CCC3(O)C(=O)c4ccncc4N=C23)cc1 (stereo not drawn) [Compound 240, 1-(4-Acetylphenyl)-3a-hydroxy-1H,2H,3H,3aH,4H-pyrrolo[2,3-b]1,7-naphthyridin-4-one]
- % inhibition at 5 μM (or 10 μM if racemate) Skeletal [1]: 49%
- % inhibition at 50 μM (or 100 μM if racemate) Skeletal [1]: 83%
- IC50 [1]: 4.3 µM
- % inhibition. complete Skeletal [1]: 91%
- IC50 [2]: 0.39 µM
- inhibition at 5 µM [2]: 24%
- inhibition at 50 µM [2]: 26%
- IC50 [3]: 1.5 µM
- IC50 [4]: 8.1 µM
- % inhibition. complete cardiac [4]: 37%
- inhibition at 5 µM [4]: 13%
- inhibition at 50 µM [4]: 31%
- % inhibition at 5 μM (or 10 μM if racemate) Smooth [5]: 18%
- % inhibition at 50 μM (or 100 μM if racemate) Smooth [5]: 23%
- Inhibition (%) smooth [5]: 24%
- % inhibition. complete Smooth [5]: 24%

Compound: Cc1ccc(N2CCC3(O)C(=O)c4ccncc4N=C23)cc1 (stereo not drawn) [Compound 247, 1-[4-(Methyl)phenyl]-3a-hydroxy-1H,2H,3H,3aH,4H-pyrrolo[2,3-b]1,7-naphthyridin-4-one]
- % inhibition at 5 μM (or 10 μM if racemate) Skeletal [1]: 74%
- % inhibition at 50 μM (or 100 μM if racemate) Skeletal [1]: 96%
- IC50 [1]: 1.7 µM
- % inhibition. complete Skeletal [1]: 99%
- IC50 [2]: 71 µM
- % inhibition. complete Dicty [2]: 54%
- inhibition at 5 µM [2]: 4%
- inhibition at 50 µM [2]: 22%
- IC50 [3]: 44 µM
- IC50 [4]: 31 µM
- % inhibition. complete cardiac [4]: 70%
- inhibition at 5 µM [4]: 9%
- inhibition at 50 µM [4]: 43%
- % inhibition at 5 μM (or 10 μM if racemate) Smooth [5]: 3%
- % inhibition at 50 μM (or 100 μM if racemate) Smooth [5]: 15%
- % inhibition. complete Smooth [5]: 29%

Compound: O=C1c2ccncc2N=C2N(c3ccc(N4CCOCC4)cc3)CCC12O (stereo not drawn) [Compound 248, 3a-Hydroxy-1-[4-(morpholin-4-yl)phenyl]-1H,2H,3H,3aH,4H-pyrrolo[2,3-b]1,7-naphthyridin-4-one]
- % inhibition at 5 μM (or 10 μM if racemate) Skeletal [1]: 21%
- % inhibition at 50 μM (or 100 μM if racemate) Skeletal [1]: 56%
- IC50 [1]: 12 µM
- % inhibition. complete Skeletal [1]: 70%
- IC50 [2]: > 100 µM
- % inhibition. complete Dicty [2]: 100%
- inhibition at 5 µM [2]: 0%
- inhibition at 50 µM [2]: 7%
- IC50 [3]: > 100 µM
- IC50 [4]: > 100 µM
- % inhibition. complete cardiac [4]: 2%
- inhibition at 5 µM [4]: 4%
- inhibition at 50 µM [4]: 1%
- % inhibition at 5 μM (or 10 μM if racemate) Smooth [5]: 1%
- % inhibition at 50 μM (or 100 μM if racemate) Smooth [5]: 0%
- % inhibition. complete Smooth [5]: 0%

Compound: CN(C)c1ccc(N2CC[C@@]3(O)C(=O)c4ccsc4N=C23)cc1 [Compound 249, (9S)-12-[4-(dimethylamino)phenyl]-9-hydroxy-4-thia-2,12-diazatricyclo[7.3.0.0^3,7]dodeca-1,3(7),5-trien-8-one]
- % inhibition at 5 μM (or 10 μM if racemate) Skeletal [1]: 80%
- % inhibition at 50 μM (or 100 μM if racemate) Skeletal [1]: 97%
- IC50 [1]: 1.2 µM
- Inhibition (%) skeletal [1]: 100%
- % inhibition. complete Skeletal [1]: 100%
- IC50 [2]: 10 µM
- % inhibition. complete Dicty [2]: 47%
- inhibition at 5 µM [2]: 15%
- inhibition at 50 µM [2]: 39%
- IC50 [3]: 13 µM
- IC50 [4]: 35 µM
- % inhibition. complete cardiac [4]: 90%
- inhibition at 5 µM [4]: 11%
- inhibition at 50 µM [4]: 52%
- % inhibition at 5 μM (or 10 μM if racemate) Smooth [5]: 19%
- % inhibition at 50 μM (or 100 μM if racemate) Smooth [5]: 55%
- % inhibition. complete Smooth [5]: 69%

Compound: Cc1cc2c(s1)N=C1N(c3ccc(N(C)C)cc3)CCC1(O)C2=O (stereo not drawn) [Compound 250, 12-[4-(Dimethylamino)phenyl]-9-hydroxy-5-methyl-4-thia-2,12-diazatricyclo[7.3.0.0^3,7]dodeca-1,3(7),5-trien-8-one]
- % inhibition at 5 μM (or 10 μM if racemate) Skeletal [1]: 93%
- % inhibition at 50 μM (or 100 μM if racemate) Skeletal [1]: 98%
- IC50 [1]: 0.3 µM
- % inhibition. complete Skeletal [1]: 99%
- IC50 [2]: 18 µM
- % inhibition. complete Dicty [2]: 68%
- inhibition at 5 µM [2]: 15%
- inhibition at 50 µM [2]: 50%
- IC50 [4]: 9 µM
- % inhibition. complete cardiac [4]: 76%
- inhibition at 5 µM [4]: 26%
- inhibition at 50 µM [4]: 64%

Compound: CN(C)c1ccc(N2CCC3(O)C(=O)c4ccncc4N=C23)cc1 (stereo not drawn) [Compound 251, 1-[4-(Dimethylamino)phenyl]-3a-hydroxy-1H,2H,3H,3aH,4H-pyrrolo[2,3-b]1,7-naphthyridin-4-one]
- % inhibition at 5 μM (or 10 μM if racemate) Skeletal [1]: 47%
- % inhibition at 50 μM (or 100 μM if racemate) Skeletal [1]: 85%
- IC50 [1]: 4.8 µM
- % inhibition. complete Skeletal [1]: 93%
- IC50 [2]: > 100 µM
- inhibition at 5 µM [2]: 1%
- inhibition at 50 µM [2]: 1%
- IC50 [3]: > 100 µM
- IC50 [4]: 6 µM
- Inhibition (%) cardiac [4]: 15%
- % inhibition. complete cardiac [4]: 15%
- inhibition at 5 µM [4]: 6%
- inhibition at 50 µM [4]: 13%
- % inhibition at 5 μM (or 10 μM if racemate) Smooth [5]: 0%
- % inhibition at 50 μM (or 100 μM if racemate) Smooth [5]: 25%
- % inhibition. complete Smooth [5]: 100%
